Compound	melting point [°C]
NS(=O)(=O)c1cc2c(cc1Cl)NC(C(Cl)Cl)NS2(=O)=O (stereo not given)	270
Oc1ccc2c(c1)OCO2	63 to 65
CCCNCCC	-63
O=P(O)(O)CCCCP(=O)(O)O	219 to 221
CCOP(=S)(OCC)SCCSCC	-25
C#CC[C@H](NC(=O)OC(C)(C)C)C(=O)O	85.5
Cc1cc(C)c(C2(C)CC(C(=NO)c3cc4cc(Br)ccc4o3)C2)c(C)c1 (stereo not given)	221 to 222
CCN(CC(=O)O)C(=O)OC(C)(C)C	88
O=C1C(=Cc2ccc(N(CCCl)CCCl)cc2)SC(=S)N1CN1CCOCC1	164
CCOC(=O)C1=C(C)OC(N)=C(C#N)C1c1ccc(N2CCOCC2)cc1 (stereo not given)	152 to 159
O=C(CBr)c1cc(Br)cc2c1OCC2	132 to 134
CC(O)C1CC1 (stereo not given)	-32.1
O=C(O)C=C(Br)C(=O)O	184
Cc1cccc(C)c1NC(=O)C1CCCCN1C (stereo not given)	150
Cc1c(C(=O)c2c[nH]n(C)c2=O)ccc(S(C)(=O)=O)c1C1=NOCC1	222
O=C(C=Cc1ccco1)C=Cc1ccco1	60.5
CCCCCCCCCCCN	16.5
CON(C)C(=O)Nc1ccc(Br)cc1	95
Nc1cc(-c2ccccc2)nn1-c1ccccc1	131
O=C1NN(c2ccccc2)C(=O)C1c1ccccc1 (stereo not given)	233
Cc1cccnc1C#N	86
O=C(O)c1ccnn1-c1ccccc1	182 to 183
Nc1cc(F)ccc1F	14
O=[N+]([O-])c1c[nH]cn1	303

Compound	melting point [°C]
CC(C)(C)N=C=O	85.5
c1ccc2c(c1)NCCN2	99
CCc1c(C)[nH]c2ccc(N(C)C)cc12	100
CCCCN(CCO)CCCC	-75
Cc1cc(C(=O)O)cc(Cl)n1	193
CNC(=O)N(C)c1nnc(C(F)(F)F)s1	136
Cc1ncc(CO)c(N)n1	198
COC(=O)c1sc2c(c1N)CSc1ccc(Cl)cc1-2	120
O=C1CC(c2ccccc2)Oc2ccc(O)cc21 (stereo not given)	220 to 222
CN(CC(=O)N1CCOCC1)Cc1c(Cl)cccc1NC(=O)c1ccccc1	123
CC(C)=CCCC(C)=CC=CC(C)=CC=CC(C)=CC=CC=C(C)C=CC=C(C)C=CC1C(C)=CCCC1(C)C (stereo not given)	140
O=C(O)CCCn1c(C(F)(F)F)nc2ccccc21	143 to 145
COc1c(F)cc(N)cc1F	79
CCCCCCCCOC(=O)CC	-42.6
CC(C)Cc1ccc(CC(=O)O)cc1	86
Nc1ncnc2c1ncn2C1OC(CO)CC1O (stereo not given)	226
CCOC(=O)c1nn(-c2ccccc2)c(=N)c(-c2nc3ccccc3s2)c1C	148
COc1ccc(C2=CCC3(C)C(CCC4C3CCC3(C)C(OC(C)=O)CCC43)C2)cc1 (stereo not given)	177 to 180
CC(C)CC(=O)C1C(=O)c2ccccc2C1=O	68.5
O=C(O)CSC(=S)SCC(=O)O	170 to 175
CCCCCCCC(=O)Oc1c(I)cc(C#N)cc1I	59.5
CCOP(=S)(Oc1ccc(C#N)cc1)c1ccccc1 (stereo not given)	83
CNc1nnc(C(F)(F)F)s1	115 to 117
CCC1(c2cccc(O)c2)CCCCN(C)C1=O (stereo not given)	172 to 176

Compound	melting point [°C]
COc1ccc2c(=O)n3ccccc3cc2c1	130
O=C(O)c1c(O)cccc1O	160 to 165
C=C1CCC(O)CC1=CC=C1CCCC2(C)C1CCC2C(C)C=CC(C)C(C)C (stereo not given)	116
S=C=Nc1ccccc1I	39
Cc1nc2ccc([N+](=O)[O-])cc2o1	155
Cc1ccc(P(=S)(c2ccc(C)cc2)c2ccc(C)cc2)cc1	185 to 186
CC(C)=CCCC(C)=CCO	50
CCOC(=O)C1=C(C)NC(=O)NC1c1ccccc1 (stereo not given)	180
CC(=O)OC1CCC2C3CCC4CC(CC(=O)O)CCC4(C)C3CCC12C (stereo not given)	151 to 153
O=Cc1csc(-c2ccccc2)n1	51 to 52
Cc1cc(C#N)ccc1Br	53
O=[N+]([O-])CCc1ccccc1	-23
CC(C)(C)N(NC(=O)c1ccccc1)C(=O)c1cccc(Cl)c1	180
CS(=O)(=O)c1ccc(S(=O)(=O)Cl)cc1	160
NC(=O)N=NC(N)=O	195 to 202
O=C(Cc1ccccc1)C(Cc1ccccc1)=NNc1ccccc1	137
O=C(O)c1ccc(Oc2ccccn2)cc1	174 to 175
CC(C)C1OC(=O)C2CCC1(C)OC2(C)C (stereo not given)	120
O=C(Nc1ccc(Cl)cc1)c1cc(Br)ccc1O	240
Nc1n[nH]c(N)c1Cc1ccccc1	148 to 149
CN1CC(C(=O)NC2(C)OC3(O)C4CCCN4C(=O)C(Cc4ccccc4)N3C2=O)C=C2c3cccc4[nH]cc(c34)CC21 (stereo not given)	214
O=C(C(=S)N1CCOCC1)c1ccccc1	75
OC(c1ccccc1)(c1ccccc1)C1CCNCC1	160
Cn1c(=O)c2c(ncn2CCCl)n(C)c1=O	122 to 127

Now from value to compound:

melting point [°C]	Compound
114 to 116	O=[N+]([O-])c1ccc(S(=O)(=O)Oc2ccccc2)cc1
45	CCCCCCCCC=CCCCCCCCC(=O)O
76	CC1CCC(C(C)C)C(OC(=O)c2ccc3ccccc3c2)C1 (stereo not given)
92 to 97	Fc1ccc(C(Br)Br)c(C(Br)Br)c1
221 to 222	C/C(=N\Cc1cccnc1)c1c(O)c2ccccc2n(-c2ccccc2)c1=O
-41	CC(C)(C)c1ccncc1
116 to 119	CCCc1c(C(=O)O)cnn1-c1ccc(Cl)cc1
91	Nc1ccc(F)nc1
59	O=C(c1cccc(F)c1)c1cccc(F)c1
< 25	FC(F)C(F)(F)CBr
175	CC(=O)Nc1ccc(OC(=O)c2ccccc2OC(C)=O)cc1
101	FC(Cl)(Cl)C(Cl)(Cl)Cl
70	C#CCCCCN1C(=O)c2ccccc2C1=O
118 to 119	COc1ccc(NC(=O)CS)cc1
36 to 37	CCOC(=O)c1cnc(C(F)(F)F)nc1Cl
129	COC1(C=O)C=CC2=C(C1)OCO2 (stereo not given)
-44.3	CCCOC(=O)C(=O)OCCC
128	COc1ccc(C(=O)c2ccc(Cl)cc2Cl)cc1OC
207 to 209	C=CCSc1nc(=O)[nH]c2c1CCCC2
160 to 167	O=Cc1cccc2cccc(C(=O)O)c12

melting point [°C]	Compound
216	COc1cc(/C=N/N=C/c2ccc(OCc3ccccc3)c(OC)c2)ccc1OCc1ccccc1
49	c1ccc(C2Cc3ccccc3N2)cc1 (stereo not given)
155 to 156	CCOC(=O)C(C#N)=NNc1cccc([N+](=O)[O-])c1
67 to 69	N#Cc1c(F)cccc1-n1cccc1
25	O=C1CCCCCCCCCCCC1
97	O=Cc1ccc(C=O)c([N+](=O)[O-])c1
190	C#CC1=C(C=NNc2ccc([N+](=O)[O-])cc2[N+](=O)[O-])CCCC1
118	CCOC(=O)c1nn(-c2ccc(Cl)cc2Cl)c(-c2ccc([N+](=O)[O-])cc2)c1S(=O)(=O)c1ccccc1
58	Cc1ccc2c(c1)C(=O)CC2
142	BrCCCOc1ccc2cc3ccc(OCCCBr)cc3nc2c1
171	CC(C)(C)OC(=O)c1cc2cc3c4c(c2oc1=O)CCCN4CCC3
90 to 92	C=CCOc1ccc(NC(C)=O)cc1
41 to 43	Cc1onc(-c2ccccc2)c1C=O
-3	CC(=O)c1ccc(C)c(C)c1
75 to 76	CC(C)CC1=CC(=Cc2ccc(-c3ccccc3)o2)C(=O)O1
292	BrCc1c(CBr)c(CBr)c(CBr)c(CBr)c1CBr
163 to 165	COc1ccc(C(c2c(O)cc(C)oc2=O)c2c(O)cc(C)oc2=O)cc1
97 to 99	S=C1NCCc2ccccc21
125 to 127	O=C(O)CCCCCCCCCCCCCCCCCCCCC(=O)O
146 to 148	N#Cc1c(F)cccc1OCc1ccc(Cl)cc1

melting point [°C]	Compound
136	CC(C)(C)c1cnc(C(=O)Nc2cc(C(F)(F)F)cc(C(F)(F)F)c2)cn1
123	COC(=O)c1cccc(C(=O)OC)n1
159 to 161	Nc1c(C(=O)O)sc2nc(-c3ccccc3)cc(C(F)(F)F)c12
153 to 155	CC(=O)NC(Cc1ccccc1F)C(=O)O (racemic)
211	Nc1c(C(=O)O)cccc1[N+](=O)[O-]
113	Cc1cccc2c(O)c(C=C3C(=O)N(c4ccccc4)N=C3c3ccccc3)c(=O)[nH]c12
62	CCN(CC)c1ccc(C=O)c(O)c1
164	Cc1c(C)c(Br)c2ccccc2c1Br
164	CC(=O)OC1CCC2(C)C3CCC4(C)C(C(C)CCCC(C)C)CCC4C3CC(OC(C)=O)C2(O)C1 (stereo not given)
48	Fc1cc(Br)ccc1I
136	O=C(O)CC(=O)O
-20	CCCCCCCCC1CCCCC1
124 to 127	COC(=O)c1c(C=O)c(C)n(C)c1C
231 to 232	Cn1ncc(C(N)=O)c1N
116 to 119	COc1cccc(C=CC(=O)O)c1
44	CCCCCCCCCCCCCCCCCCCCc1ccccc1
159	O=C(O)c1c(C(F)(F)F)ccnc1Cl
242	O=C(Nc1ccc(Br)cc1)c1cc(Br)ccc1O

— a melting point compilation (Tetko et al.)
